Test results published in patent US12030904B2 (priority 2020, dated 2024).
Like-named read-outs stand apart in the source and are kept apart here.

Legend:
[1] = test system: Recombinant Respiratory Syncytial virus strain A2 containing the firefly luciferase reporter (RSV-Fluc); assay: microbe, parasite or virus in culture; format: cell-based; conditions: human respiratory syncytial virus, NHBE
SARS-CoV-2 = assay: microbe, parasite or virus in culture; format: cell-based; conditions: Severe acute respiratory syndrome coronavirus 2, read-out: SARS EC50
MT4 cytotoxicity (CC50) = conditions: human, MT4 cells
[2] = 72 h, read-out: RSV-Fluc EC50 (NHBE), NHBE cells, three days, Table 2

| SMILES | EC50 ([1]; read-out: RSV EC50, Table 4) [nM] | EC50 (SARS-CoV-2) [nM] | CC50 (MT4 cytotoxicity (CC50); MT4 CC50, Table 4) [nM] | EC50 [1, 2] [nM] | EC50 ([1]; read-out: RSV EC50, Table 2a) [nM] | CC50 (MT4 cytotoxicity (CC50); MT4 CC50, Table 2a) [nM] |
| --- | --- | --- | --- | --- | --- | --- |
| CCCCCCCC/C=C/CCCCCCCCOC[C@H](COP(=O)(O)OC[C@H]1O[C@@](C#N)(c2ccc3c(N)ncnn23)[C@H](O)[C@@H]1O)OCc1cc(F)cc(C#N)c1 [Example 126, ((2R,3S,4R,5R)-5-(4-aminopyrrolo[2,1-f][1,2,4]triazin-7-yl)-5-cyano-3,4-dihydroxytetrahydrofuran-2-yl)methyl ((R)-2-((3-cyano-5-fluorobenzyl)oxy)-3-(((E)-octadec-9-en-1-yl)oxy)propyl) hydrogen phosphate] | 30 | 140 | 366 | – | – | – |
| CCCCCCCCCCCCCCCCCCOC[C@H](COP(=O)(O)OC[C@H]1O[C@@](C#N)(c2ccc3c(N)ncnn23)[C@H](O)[C@@H]1O)OCc1ccsc1 [Example 20, ((2R,3S,4R,5R)-5-(4-aminopyrrolo[2,1-f][1,2,4]triazin-7-yl)-5-cyano-3,4-dihydroxytetrahydrofuran-2-yl)methyl ((R)-3-(octadecyloxy)-2-(thiophen-3-ylmethoxy)propyl) hydrogen phosphate] | – | 264 | – | 76 | 76 | 13200 |
| CCCCCCCCCCCCCCCCCCOC[C@H](COP(=O)(O)OC[C@H]1O[C@@](C#N)(c2ccc3c(N)ncnn23)[C@H](O)[C@@H]1O)OCc1ccc(OC)c(C#N)c1 [Example 115, [(2R,3S,4R,5R)-5-(4-Aminopyrrolo[2,1-f][1,2,4]triazin-7-yl)-5-cyano-3,4-dihydroxy-tetrahydrofuran-2-yl]methyl [(2R)-2-[(3-cyano-4-methoxy-phenyl)methoxy]-3-octadecoxy-propyl] hydrogen phosphate] | 166 | 390 | 1460 | – | – | – |
| CCCCCCCCCCCCCCCCCCOC[C@H](COP(=O)(O)OC[C@H]1O[C@@](C#N)(c2ccc3c(N)ncnn23)[C@H](O)[C@@H]1O)Oc1cnc(C#N)cn1 [Example 77, ((2R,3S,4R,5R)-5-(4-aminopyrrolo[2,1-f][1,2,4]triazin-7-yl)-5-cyano-3,4-dihydroxytetrahydrofuran-2-yl)methyl ((R)-2-((5-cyanopyrazin-2-yl)oxy)-3-(octadecyloxy)propyl) hydrogen phosphate] | 7 | 31 | 196 | – | – | – |
| CCCCCCCCCCOCCCOP(=O)(O)OC[C@H]1O[C@@](C#N)(c2ccc3c(N)ncnn23)[C@H](O)[C@@H]1O [Example 56, ((2R,3S,4R,5R)-5-(4-Aminopyrrolo[2,1-f][1,2,4]triazin-7-yl)-5-cyano-3,4-dihydroxytetrahydrofuran-2-yl)methyl (3-(decyloxy)propyl) hydrogen phosphate] | – | 10000 | – | 5000 | 5000 | 50000 |
| CCCCCCCCCCCCCCCCCCOC[C@H](COP(=O)(O)OC[C@H]1O[C@@](C#N)(c2ccc3c(N)ncnn23)[C@H](O)[C@@H]1O)OCc1cc(F)cc(C(F)(F)F)c1 [Example 19, ((2R,3S,4R,5R)-5-(4-aminopyrrolo[2,1-f][1,2,4]triazin-7-yl)-5-cyano-3,4-dihydroxytetrahydrofuran-2-yl)methyl ((R)-2-((3-fluoro-5-(trifluoromethyl)benzyl)oxy)-3-(octadecyloxy)propyl) hydrogen phosphate] | – | 2800 | – | 180 | 182 | 541 |
| CCCCCCCCCCCCCCCCCCOC[C@@H](COP(=O)(O)OC[C@H]1O[C@@](C#N)(c2ccc3c(N)ncnn23)[C@H](O)[C@@H]1O)OCc1cc(F)cc(C#N)c1 [Example 93, ((2R,3S,4R,5R)-5-(4-aminopyrrolo[2,1-f][1,2,4]triazin-7-yl)-5-cyano-3,4-dihydroxytetrahydrofuran-2-yl)methyl ((S)-2-((3-cyano-5-fluorobenzyl)oxy)-3-(octadecyloxy)propyl) hydrogen phosphate] | 79 | 450 | 1730 | – | – | – |
| CCCCCCCCCCCCCCCCOCCCOP(=O)(O)OC[C@H]1O[C@@](C#N)(c2ccc3c(N)ncnn23)[C@H](O)[C@@H]1O [Example 60, ((2R,3S,4R,5R)-5-(4-Aminopyrrolo[2,1-f][1,2,4]triazin-7-yl)-5-cyano-3,4-dihydroxytetrahydrofuran-2-yl)methyl (3-(hexadecyloxy)propyl) hydrogen phosphate] | – | 6950 | – | 73 | 73 | 25800 |
| CCCCCCCCCCCCCCCCCCOC[C@H](COP(=O)(O)OC[C@H]1O[C@@](C#N)(c2ccc3c(N)ncnn23)[C@H](O)[C@@H]1O)Oc1cc(F)cc(C#N)c1 [Example 31, ((2R,3S,4R,5R)-5-(4-aminopyrrolo[2,1-f][1,2,4]triazin-7-yl)-5-cyano-3,4-dihydroxytetrahydrofuran-2-yl)methyl ((R)-2-(3-cyano-5-fluorophenoxy)-3-(octadecyloxy)propyl) hydrogen phosphate] | – | 86 | – | – | 21 | 195 |
| CCCCCCCCCCCCCCCCCCOC[C@H](COP(=O)(O)OC[C@H]1O[C@@](C#N)(c2ccc3c(N)ncnn23)[C@H](O)[C@@H]1O)OCc1ccc(C#N)cc1Cl [Example 103, [(2R,3S,4R,5R)-5-(4-Aminopyrrolo[2,1-f][1,2,4]triazin-7-yl)-5-cyano-3,4-dihydroxy-tetrahydrofuran-2-yl]methyl [(2R)-2-[(2-chloro-4-cyano-phenyl)methoxy]-3-octadecoxy-propyl] hydrogen phosphate] | 387 | 10000 | 50000 | – | – | – |
| CCCCCCCCCCCCCCCCCCOC[C@H](COP(=O)(O)OC[C@H]1O[C@@](C#N)(c2ccc3c(N)ncnn23)[C@H](O)[C@@H]1O)OCc1ccc(C(F)F)cc1 [Example 33, ((2R,3S,4R,5R)-5-(4-aminopyrrolo[2,1-f][1,2,4]triazin-7-yl)-5-cyano-3,4-dihydroxytetrahydrofuran-2-yl)methyl ((R)-2-((4-(difluoromethyl)benzyl)oxy)-3-(octadecyloxy)propyl) hydrogen phosphate] | – | 3020 | – | – | 77 | 8850 |
| CCCCCCCCCCCCCCCCCCOC[C@H](COP(=O)(O)OC[C@H]1O[C@@](C#N)(c2ccc3c(N)ncnn23)[C@H](O)[C@@H]1O)OCc1c(F)cccc1F [Example 43, ((2R,3S,4R,5R)-5-(4-aminopyrrolo[2,1-f][1,2,4]triazin-7-yl)-5-cyano-3,4-dihydroxytetrahydrofuran-2-yl)methyl ((R)-2-((2,6-difluorobenzyl)oxy)-3-(octadecyloxy)propyl) hydrogen phosphate] | – | 139 | – | 68 | 68 | 1470 |
| CCCCCCCCCCCCCCCCCCOC[C@H](COP(=O)(O)OC[C@H]1O[C@@](C#N)(c2ccc3c(N)ncnn23)[C@H](O)[C@@H]1O)OCC(C)C [Example 46, ((2R,3S,4R,5R)-5-(4-aminopyrrolo[2,1-f][1,2,4]triazin-7-yl)-5-cyano-3,4-dihydroxytetrahydrofuran-2-yl)methyl ((R)-2-isobutoxy-3-(octadecyloxy)propyl) hydrogen phosphate] | – | 2470 | – | 1100 | 1090 | 50000 |
| CCCCCCCCCCCCCCOCCCCOP(=O)(O)OC[C@H]1O[C@@](C#N)(c2ccc3c(N)ncnn23)[C@H](O)[C@@H]1O [Example 120, [(2R,3S,4R,5R)-5-(4-Aminopyrrolo[2,1-f][1,2,4]triazin-7-yl)-5-cyano-3,4-dihydroxy-tetrahydrofuran-2-yl]methyl 4-tetradecoxybutyl hydrogen phosphate] | 224 | 10000 | 12100 | – | – | – |
| CCCCCCCCCCCCCCCCCCOC[C@H](COP(=O)(O)OC[C@H]1O[C@@](C#N)(c2ccc3c(N)ncnn23)[C@H](O)[C@@H]1O)OCc1cc(F)ccc1C#N [Example 51, ((2R,3S,4R,5R)-5-(4-aminopyrrolo[2,1-f][1,2,4]triazin-7-yl)-5-cyano-3,4-dihydroxytetrahydrofuran-2-yl)methyl ((R)-2-((2-cyano-5-fluorobenzyl)oxy)-3-(octadecyloxy)propyl) hydrogen phosphate] | – | 1650 | – | – | – | 2140 |
| CCCCCCCC/C=C\CCCCCCCCOC[C@H](COP(=O)(O)OC[C@H]1O[C@@](C#N)(c2ccc3c(N)ncnn23)[C@H](O)[C@@H]1O)OCc1cc(F)cc(C#N)c1 [Example 128, ((2R,3S,4R,5R)-5-(4-aminopyrrolo[2,1-f][1,2,4]triazin-7-yl)-5-cyano-3,4-dihydroxytetrahydrofuran-2-yl)methyl ((R)-2-((3-cyano-5-fluorobenzyl)oxy)-3-(((Z)-octadec-9-en-1-yl)oxy)propyl) hydrogen phosphate] | 2 | – | 730 | – | – | – |
| CCCCCCCCCCCCCCCCCCOC[C@H](COP(=O)(O)OC[C@H]1O[C@@](C#N)(c2ccc3c(N)ncnn23)[C@H](O)[C@@H]1O)Oc1ccc(OC)cn1 [Example 89, ((2R,3S,4R,5R)-5-(4-aminopyrrolo[2,1-f][1,2,4]triazin-7-yl)-5-cyano-3,4-dihydroxytetrahydrofuran-2-yl)methyl ((R)-2-((5-methoxypyridin-2-yl)oxy)-3-(octadecyloxy)propyl) hydrogen phosphate] | 28 | – | 962 | – | – | – |
| CCCCCCCCCCCCCCCCCCOC[C@H](COP(=O)(O)OC[C@H]1O[C@@](C#N)(c2ccc3c(N)ncnn23)[C@H](O)[C@@H]1O)Oc1cc(OC)ccn1 [Example 90, ((2R,3S,4R,5R)-5-(4-aminopyrrolo[2,1-f][1,2,4]triazin-7-yl)-5-cyano-3,4-dihydroxytetrahydrofuran-2-yl)methyl ((R)-2-((4-methoxypyridin-2-yl)oxy)-3-(octadecyloxy)propyl) hydrogen phosphate] | 109 | – | 383 | – | – | – |
